Measured values published in US9181182B2, “S1P receptors modulators” (Akaal Pharma PTY LTD, priority 2008, dated 2015).

Key:
[1] = system: Human promyelocytic leukemia (HL-60) cells; assay: Cell viability (growth inhibition) assay, MTS; type: cell-based; conditions: Homo sapiens, 50% reduction in cell viability of HL-60 cells, 48 hr incubation
Method: In order to measure the apoptotic effect of compounds on the metabolic activity of viable cells, the following assay was performed on Human promyelocytic leukemia cells. The assay utilises the tetrazolium compound (3-(4,5-dimethylthiazol-2-yl)-5-(3-carboxymethoxyphenyl)-2-(4-sulfophenyl)-2H-tetrazolium, inner salt; (MTS) and an electron coupling reagent (phenazine methosulfate; (PMS). MTS is bioreduced by cells into a formazan product the optical absorbance of which is measured directly from 96 well assay plates. The conversion of MTS into aqueous, soluble formazan is accomplished by dehydrogenase enzymes found in metabolically active cells. The quantity of formazan product as measured by the amount of 490 nm absorbance is directly proportional to the number of living cells in culture.
The assay was based on the National Cancer Institute (NCI) protocol, briefly, cells were grown in RPMI 1640 media supplemented with 10% FCS (foetal calf serum) and kept at 37° C. in a humidified environment with 5% CO2.
For the growth inhibition assay, Human promyelocytic leukemia (HL-60) cells were seeded at a density of 10,000 cells per well in 96 well plates in a volume of 100 μl and allowed to grow for 24 h. Compounds were serially diluted in DMSO at concentrations 100 fold higher than used in the assay (100×). Compounds were freshly prepared for each experiment. The 100× stocks were then diluted to 2× stocks into media and immediately, 100 μl of this 2× stock was added to the cells to create the desired final concentration of drug with a DMSO concentration of 1%. One row of each 96 well plate was treated with DMSO alone as a control. Cells were then incubated for a further 48 hr. Metabolic activity was determined using MTS (Promega) (90% 1.6 mg/ml MTS, 10% 1.6 mg/ml PMS (phenazine methosulfate) made fresh in PBS). 50 μl of this mix was added to all wells of the plates and allowed to incubate for 1.5-2 hr. Plates were shaken gently for about 15 min and absorbance was read on a plate reader at 490 nm. Averages were taken of the readings at each point with standard deviation and plotted using MicroCal Origin.

S1P1 human receptor = S1P1 human receptor (Homo sapiens (Human), UniProt P21453); assay: S1P1 [35S]-GTPgamaS binding assay (agonist activity); type: biochemical; conditions: for EC50: GTPgamaS binding, agonist; for Efficacy (% of maximum): S1P1, relative to reference agonist S1P; for EC50S1P1/EC50S1P: potency at S1P1 relative to S1P
Method: Selected Compounds of the Examples were evaluated at Millipore Corporation, USA, using S1P1 receptor; [^35S]-GTPgamaS binding assay. A [^35S]-GTPgamaS binding assay at Millipore was conducted by GPCR Profiler™ Custom Service Laboratory, Temecula, Calif., Millipore, Inc. to monitor dose-dependent agonist selectivity for selected Examples against the S1P1 receptors. The assay was completed with sample compounds subjected to an eight-point, four-fold dose response curve with starting concentration of 10 μM. Selectivity was determined upon initial addition of compounds followed by a 30 minute incubation at 30° C. Following compound incubation, bounded [^35S]-GTPgamaS was determined by filtration and scintillation counting.
(§1) Independently, selected compounds were evaluated for S1P1 and S1P3 agonistic activity. The S1P1 assay system was GTPgama-S35 binding in membranes from CHO K1 cells, expressing S1P1 human receptor. The S1P3 assay system was calcium mobilization in CHO K1 cells expressing S1P3 human receptor. […] Compounds were tested initially at a concentration of 10 μM.

S1P3 human receptor = S1P3 human receptor (Homo sapiens (Human), UniProt Q99500); assay: S1P3 calcium mobilization in CHO K1 cells; type: cell-based; conditions: NA = Not Active
Method: as §1

female BALB/c mice = assay: Lymphopenia assay; type: in vivo
Method: The study was performed to determine the ability of the compounds of the invention to induce lymphopenia in female BALB/c mice. On day 0, 27 female BALB/c mice were randomised based on body weight into nine groups of three mice each. Animals received a single i.p. administration of Test compounds and blood was collected by cardiac puncture either 6 or 24 h after administration. […] Changes to other haematological parameters were not observed.

[2] = 3 mg/kg and 30 mg/kg single i.p., 6 and 24 h, compared to untreated animals

Chain of S1P3 human receptor (Q99500 whole entry): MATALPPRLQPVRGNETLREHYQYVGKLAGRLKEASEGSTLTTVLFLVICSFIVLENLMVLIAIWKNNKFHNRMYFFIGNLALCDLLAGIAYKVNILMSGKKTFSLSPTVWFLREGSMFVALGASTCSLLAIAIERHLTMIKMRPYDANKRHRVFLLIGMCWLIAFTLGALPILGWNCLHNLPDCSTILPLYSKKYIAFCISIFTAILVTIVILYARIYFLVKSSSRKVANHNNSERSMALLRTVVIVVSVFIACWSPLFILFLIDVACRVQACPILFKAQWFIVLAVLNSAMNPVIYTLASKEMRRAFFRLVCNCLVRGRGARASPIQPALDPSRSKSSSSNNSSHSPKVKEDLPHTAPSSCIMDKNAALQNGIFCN
Chain of S1P1 human receptor (P21453 whole entry): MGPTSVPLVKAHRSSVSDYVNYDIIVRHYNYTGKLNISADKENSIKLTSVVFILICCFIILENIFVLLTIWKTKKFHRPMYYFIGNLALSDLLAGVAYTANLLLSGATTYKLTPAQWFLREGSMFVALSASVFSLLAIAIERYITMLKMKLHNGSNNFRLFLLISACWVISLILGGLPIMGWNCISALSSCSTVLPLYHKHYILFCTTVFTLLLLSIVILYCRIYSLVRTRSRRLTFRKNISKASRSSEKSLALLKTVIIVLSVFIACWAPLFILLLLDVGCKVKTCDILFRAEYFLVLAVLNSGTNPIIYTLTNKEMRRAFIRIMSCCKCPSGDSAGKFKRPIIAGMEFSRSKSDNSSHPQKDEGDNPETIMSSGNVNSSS

Row | Compound | IC50 [1] [nM] | EC50 (S1P1 human receptor) [nM] | Efficacy (% of maximum) (S1P1 human receptor) [%] | EC50S1P1/EC50S1P (S1P1 human receptor) | EC50 (S1P3 human receptor) [nM] | lymphocyte counts (female BALB/c mice; [2]) | total white blood cell counts (female BALB/c mice; [2]) | Changes to other haematological parameters (female BALB/c mice; single i.p., 6 or 24 h)
1 | CCOc1ccc(-c2nc(-c3cccc4c3CCN4CC(N)(CO)CO)no2)cc1OCC [Example 34, 2-Amino-2-((4-(5-(3,4-diethoxyphenyl)-1,2,4-oxadiazol-3-yl)indolin-1-yl)methyl)propane-1,3-diol] | 1820 ± 500 | 6.8 | 92 | 0.4 | 1290 | decrease | decrease | not observed
2 | CCOc1ccc(-c2nc(-c3ccc4c(c3)CCN4CC(N)(CO)CO)no2)cc1OCC [Example 40, 2-Amino-2-((5-(5-(3,4-diethoxyphenyl)-1,2,4-oxadiazol-3-yl)indolin-1-yl)methyl)propane-1,3-diol] | 3100 | 344 | 117 | 36.41 | > 15600 | – | – | –
3 | CCCc1ccc(-c2nc(-c3cccc4c3CCN4CC(N)(CO)CO)no2)cc1CCC [Example 47, 2-Amino-2-((4-(5-(3,4-dipropylphenyl)-1,2,4-oxadiazol-3-yl)indolin-1-yl)methyl)propane-1,3-diol] | – | 2.4 | 94 | 0.33 | 965 | – | – | –
4 | CCOc1ccc(-c2nc(-c3ccc4c(c3)CN(CC(N)(CO)CO)C4)no2)cc1OCC [Example 65, 2-Amino-2-((5-(5-(3,4-diethoxyphenyl)-1,2,4-oxadiazol-3-yl)isoindolin-2-yl)methyl)propane-1,3-diol] | – | 7.4 | 97 | 0.16 | 390 | – | – | –
